# Measured values reported in patent US20250019385A1, “SPIROCYCLIC ANNULATED 2-AMINO-3-CYANO THIOPHENES AND DERIVATIVES FOR THE TREATMENT OF CANCER” (Boehringer Ingelheim International GmbH, priority 2023, published 2025).
# Experiments:
# Assay type in all cases: in vitro ADME
# [1] = Caco-2 assay (permeability and efflux ratio); conditions: human; for Papp A→B at 90 min, 10 μM: Caco-2 apical to basolateral permeability, pH 7.4, read-out: Caco PappAB; for efflux ratio at 90 min, 10 μM: pH 7.4, Caco-2 efflux ratio PappBA/PappAB, read-out: Caco ER
# Procedure: (§1) The assay provides information on the potential of a compound to pass the cell membrane, on the extent of oral absorption as well as on whether the compound is actively transported by uptake and/or efflux transporters. Permeability measurements across polarized, confluent Caco-2 cell monolayers grown on permeable filter supports (Corning, catalog #3391) are used. 10 μM test compound solution in assay buffer (128.13 mM NaCl, 5.36 mM KCl, 1 mM MgSO4, 1.8 mM CaCl2), 4.17 mM NaHCO3, 1.19 mM Na2HPO4, 0.41 mM NaH2PO4, 15 mM 2-[4-(2-hydroxyethyl)piperazin-1-yl]ethanesulfonic acid (HEPES), 20 mM glucose, pH 7.4) was added to the donor compartment of the cell chamber containing a monolayer of Caco-2 cells in between the donor and the receiver compartment. The receiver and donor compartments contain 0.25% bovine serum albumine (BSA) in assay buffer. Passive diffusion and/or active transport of compounds across the monolayer is measured in both apical to basolateral (a-b) and basolateral to apical (b-a) direction. a-b permeability (PappAB) represents drug absorption from the intestine into the blood and b-a permeability (PappBA) drug secretion from the blood back into the intestine via both passive permeability as well as active transport mechanisms mediated by efflux and uptake transporters that are expressed on the Caco-2 cells. After a pre-incubation of 25-30 min at 37° C., at predefined time points (0, 30, 60 and 90 min), samples were taken from the receiver and donor compartment, respectively. Concentrations of test compounds in samples were measured by HPLC/MS/MS, samples from the donor compartment were diluted 1:50 (v:v) with assay buffer, samples from receiver compartment were measured without dilution.
# (§2) Apparent permeabilities in a-b (PappAB) and b-a (PappBA) directions are calculated according to the formula:
# (§3) [formula] • Vrec [mL]: buffer volume in receiver compartment • Cdon [μmol/mL]: concentration of test compound in donor compartment at t=0 • ΔCrec: difference between concentrations of test compound in receiver compartment at start and end of incubation time • Δt: Incubation time • Vrec·ΔCrec/Δt [μmol/min]: Amount of compound transferred to receiver compartment per time • A [cm^2]: filter surface
# (§4) Caco-2 efflux ratios (ER) are calculated as the ratio of PappBA/PappAB.
# CYP3A4 = CYP3A4 (Homo sapiens (Human), UniProt P08684); assay: Mechanism based inhibition of CYP3A4 assay (MBI 3A4); conditions: human liver microsomes, 25 uM compound; hydroxy-midazolam formation after 30 min preincubation relative to 0 min
# Sequence of CYP3A4 (P08684 whole entry): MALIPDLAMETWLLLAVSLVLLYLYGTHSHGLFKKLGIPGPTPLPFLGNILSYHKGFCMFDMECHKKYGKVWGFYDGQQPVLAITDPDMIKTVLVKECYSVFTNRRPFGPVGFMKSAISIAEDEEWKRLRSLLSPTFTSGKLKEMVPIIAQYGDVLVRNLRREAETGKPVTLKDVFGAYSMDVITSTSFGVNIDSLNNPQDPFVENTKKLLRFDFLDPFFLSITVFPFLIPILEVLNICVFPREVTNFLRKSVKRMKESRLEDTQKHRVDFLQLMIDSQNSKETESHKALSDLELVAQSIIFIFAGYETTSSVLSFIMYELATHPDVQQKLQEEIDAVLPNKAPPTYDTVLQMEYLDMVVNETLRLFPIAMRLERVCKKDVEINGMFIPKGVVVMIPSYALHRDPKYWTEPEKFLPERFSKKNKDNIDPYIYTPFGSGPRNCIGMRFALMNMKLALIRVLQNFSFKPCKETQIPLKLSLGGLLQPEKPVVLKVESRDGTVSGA
# Procedure: The time dependent inhibition towards CYP3A4 is assayed in human liver microsomes (0.02 mg/mL) with midazolam (15 μM) as a substrate. The test compounds and water control (wells w/o test compound) are preincubated in presence of NADPH (1 mM) with human liver microsomes (0.2 mg/mL) at a concentration of 25 uM for 0 min and 30 min. After preincubation, the incubate is diluted 1:10 and the substrate midazolam is added for the main incubation (15 min). The main incubation is quenched with acetonitrile and the formation of hydroxy-midazolam is quantified via LC/MS-MS. The formation of hydroxy-midazolam from the 30 min preincubation relative to the formation from the 0 min preincubation is used as a readout. Values of less than 100% mean that the substrate midazolam is metabolized to a lower extent upon 30 min preincubation compared to 0 min preincubation. In general low effects upon 30 min preincubation are desired (corresponding to values close to 100%/not different to the values determined with water control).
# Caco-2 cell monolayers = assay: Caco-2 assay (permeability and efflux ratio); conditions: 10 μM
# Procedure: as §1, §2, §3, §4
"Papp A→B at 90 min, 10 μM [1] [×10⁻⁶ cm/s]","efflux ratio at 90 min, 10 μM [1]",MBI 3A4 (CYP3A4) [%],Structure (SMILES),"Caco PappAB (Caco-2 cell monolayers; Caco-2 apical to basolateral permeability, pH 7.4) [×10⁻⁶ cm/s]",Caco ER (Caco-2 cell monolayers; Caco-2 efflux ratio PappBA/PappAB)
18,3.1,–,COCCn1c(=O)n([C@@H]2CCOC2)c2nc(-c3onc4c3CCC[C@@]43CCCc4sc(N)c(C#N)c43)nc(O[C@@H](C)[C@@H]3CCCN3C)c21 [I-1],–,–
29,1.9,–,CO[C@@H]1C[C@@H]([C@H](C)Oc2nc(-c3onc4c3CCC[C@@]43CCCc4sc(N)c(C#N)c43)nc3c2n(C)c(=O)n3[C@@H]2CCOC2)N(C)C1 [I-3],–,–
0.8,46.3,61,C[C@H](Oc1nc(-c2onc3c2CCC[C@@]32CCCc3sc(N)c(C#N)c32)nc2c1[nH]c(=O)n2[C@@H]1CCOC1)[C@@H]1CCCN1C [I-8],–,–
20,2.7,83,C[C@H](Oc1nc(-c2onc3c2CCC[C@@]32CCCc3sc(N)c(C#N)c32)nc2c1n(C)c(=O)n2[C@H]1CCOC1)[C@@H]1CCCN1C [I-9],–,–
25.5,1.7,75,C[C@H](Oc1nc(-c2onc3c2CCC[C@@]32CCCc3sc(N)c(C#N)c32)nc2c1n(C)c(=O)n2[C@@H]1CCCOC1)[C@@H]1CCCN1C [I-12],–,–
11.9,6.2,92,C[C@H](Oc1nc(-c2onc3c2CCC[C@@]32CCCc3sc(N)c(C#N)c32)nc2c1n(C)c(=O)n2[C@@H]1CCOC1)[C@@H]1CCCN1C [I-20],–,–
19,3.8,–,CCn1c(=O)n([C@@H]2CCOC2)c2nc(-c3onc4c3CCC[C@@]43CCCc4sc(N)c(C#N)c43)nc(O[C@@H](C)[C@@H]3CCCN3C)c21 [I-21],–,–
2.9,18.6,60,C[C@H](Oc1nc(-c2onc3c2CCC[C@@]32CCCc3sc(N)c(C#N)c32)nc2c1n(C)c(=O)n2[C@@H]1CCOC1)C12CCCN1CCC2 [I-25],–,–
43,1,83,C[C@H](Oc1nc(-c2onc3c2CCC[C@@]32CCCc3sc(N)c(C#N)c32)nc2c1n(C)c(=O)n2[C@@H]1CCOC1)[C@@H]1CC[C@H](C)N1C [I-26],–,–
19,2.5,79,C[C@H](Oc1nc(-c2onc3c2CCC[C@@]32CCCc3sc(N)c(C#N)c32)nc2c1n(C)c(=O)n2[C@@]12COC[C@@H]1C2)[C@@H]1CCCN1C [I-29],–,–
–,0.7,–,CCn1c(=O)n([C@@H]2CCCOC2)c2nc(-c3onc4c3CCC[C@@]43CCCc4sc(N)c(C#N)c43)nc(O[C@@H](C)[C@@H]3CCCN3C)c21 [I-30],–,–
14,2.5,–,C[C@@H]1COC[C@H](n2c(=O)n(C)c3c(O[C@@H](C)[C@@H]4CCCN4C)nc(-c4onc5c4CCC[C@@]54CCCc5sc(N)c(C#N)c54)nc32)C1 [I-44],–,–
43,0.6,–,C[C@H](Oc1nc(-c2onc3c2CCC[C@@]32CCCc3sc(N)c(C#N)c32)nc2c1n(C)c(=O)n2[C@@]12COC[C@@H]1C2)[C@@H]1CC[C@H](C)N1C [I-45],–,–
21,1.8,–,CO[C@@H]1C[C@@H]([C@H](C)Oc2nc(-c3onc4c3CCC[C@@]43CCCc4sc(N)c(C#N)c43)nc3c2n(C)c(=O)n3[C@@]23COC[C@@H]2C3)N(C)C1 [I-46],–,–
36,0.5,–,CO[C@H]1CCN(C)[C@@H]1[C@H](C)Oc1nc(-c2onc3c2CCC[C@@]32CCCc3sc(N)c(C#N)c32)nc2c1n(C)c(=O)n2[C@H]1COC[C@@H](C)C1 [I-51],–,–
34,0.6,–,CO[C@@H]1C[C@@H]([C@H](C)Oc2nc(-c3onc4c3CCC[C@@]43CCCc4sc(N)c(C#N)c43)nc3c2n(C)c(=O)n3[C@H]2COC[C@@H](C)C2)N(C)C1 [I-52],–,–
–,–,83,C[C@H](Oc1nc(-c2onc3c2CCC[C@@]32CCCc3sc(N)c(C#N)c32)nc2c1COC[C@]21CCOC1)[C@@H]1CCCN1C [I-54],–,–
24,2.3,–,C[C@H](Oc1nc(-c2onc3c2CCC[C@@]32CCCc3sc(N)c(C#N)c32)nc2c1CN(C1COC1)C[C@]21CCOC1)[C@@H]1CC[C@H](C)N1C [I-55],–,–
8.4,7.1,–,C[C@H](Oc1nc(-c2onc3c2CCC[C@@]32CCCc3sc(N)c(C#N)c32)nc2c1CN(C1COC1)C[C@]21CCOC1)[C@@H]1CCCN1C [I-56],–,–
35,1.3,–,CO[C@H]1CCN(C)[C@@H]1[C@H](C)Oc1nc(-c2onc3c2CCC[C@@]32CCCc3sc(N)c(C#N)c32)nc2c1CN(C1COC1)C[C@]21CCOC1 [I-57],–,–
8.7,5.9,–,C[C@H](Oc1nc(-c2noc3c2CCC[C@@]32CCCc3sc(N)c(C#N)c32)nc2c1n(C)c(=O)n2[C@H]1CO[C@@H](C)C1)[C@@H]1CCCN1C [II-5],–,–
13,4.3,–,CO[C@@H]1C[C@@H]([C@H](C)Oc2nc(-c3noc4c3CCC[C@@]43CCCc4sc(N)c(C#N)c43)nc3c2n(C)c(=O)n3[C@@]23COC[C@@H]2C3)N(C)C1 [II-6],–,–
23,1.6,85,C[C@H](Oc1nc(-c2noc3c2CCC[C@@]32CCCc3sc(N)c(C#N)c32)nc2c1COC[C@]21CCOC1)[C@@H]1CCCN1C [II-8],–,–
25,1.8,101,C[C@H](Oc1nc(-c2noc3c2CCC[C@@]32CCCc3sc(N)c(C#N)c32)nc2c1CCO[C@]21CCOC1)[C@@H]1CCCN1C [II-9b],–,–
27,0.9,–,CO[C@@H]1C[C@@H]([C@H](C)Oc2nc(-c3noc4c3CCC[C@@]43CCCc4sc(N)c(C#N)c43)nc3c2COC[C@]32CCOC2)N(C)C1 [II-11],–,–
2.9,21.6,–,C[C@H](Oc1nc(-c2noc3c2CCC[C@@]32CCCc3sc(N)c(C#N)c32)nc2c1CN(C1COC1)C[C@]21CCOC1)[C@@H]1CCCN1C [II-12],–,–
18,2.9,–,CO[C@H]1CCN(C)[C@@H]1[C@H](C)Oc1nc(-c2noc3c2CCC[C@@]32CCCc3sc(N)c(C#N)c32)nc2c1CN(C1COC1)C[C@]21CCOC1 [II-13],–,–
3.2,15.3,–,CO[C@@H]1C[C@@H]([C@H](C)Oc2nc(-c3noc4c3CCC[C@@]43CCCc4sc(N)c(C#N)c43)nc3c2CN(C2COC2)C[C@]32CCOC2)N(C)C1 [II-14],–,–
12,3.8,–,C[C@H](Oc1nc(-c2noc3c2CCC[C@@]32SCCc3sc(N)c(C#N)c32)nc2c1COC[C@]21CCOC1)[C@@H]1CCCN1C [II-16],–,–
16,3.4,–,C[C@H](Oc1nc(-c2noc3c2CCC[C@@]32CCCc3sc(N)c(C#N)c32)nc2c1CN(C1COC1)C[C@]21CCOC1)[C@@H]1CC[C@H](C)N1C [II-17],–,–

Structure (SMILES),"Papp A→B at 90 min, 10 μM [1] [×10⁻⁶ cm/s]","efflux ratio at 90 min, 10 μM [1]",MBI 3A4 (CYP3A4) [%],"Caco PappAB (Caco-2 cell monolayers; Caco-2 apical to basolateral permeability, pH 7.4) [×10⁻⁶ cm/s]",Caco ER (Caco-2 cell monolayers; Caco-2 efflux ratio PappBA/PappAB)
C[C@H](Oc1nc(-c2noc3c2CCC[C@@]32CCCc3sc(N)c(C#N)c32)nc2c1CC[C@]21CNCCO1)[C@@H]1C[C@@H](F)CN1C [II-20],–,–,95,0.3,303.8
